Source: US20190040083A1 (priority 2016, published 2019)
Converted amounts (≈) assume the structure as drawn.

How the values were obtained:
[1] = system: human hepatic cell line (HepG2 ATCC HB-8065); experiment: cells; settings: HepG2, 24 h, read-out: IC50 (μg/mL) HepG2
[2] = system: Haemophilus influenzae ATCC 49247; experiment: microbe, parasite or virus in culture; format: cell-based; settings: ATCC49247
[3] = system: Acinetobacter baumannii ATCC 19606; experiment: microbe, parasite or virus in culture; format: cell-based; settings: ATCC19606
[4] = system: Escherichia coli ATCC 25922; experiment: microbe, parasite or virus in culture; format: cell-based; settings: ATCC25922
[5] = system: Enterobacter cloacae NCTC 13406; experiment: microbe, parasite or virus in culture; format: cell-based; settings: NCTC13406
[6] = system: Pseudomonas aeruginosa ATCC 27853; experiment: microbe, parasite or virus in culture; format: cell-based; settings: ATCC27853
[7] = system: Acinetobacter baumannii NCTC 13420; experiment: microbe, parasite or virus in culture; format: cell-based; settings: NCTC13420
[8] = system: Staphylococcus aureus ATCC 29213; experiment: microbe, parasite or virus in culture; format: cell-based; settings: ATCC29213
[9] = system: Klebsiella pneumoniae ATCC 700603; experiment: microbe, parasite or virus in culture; format: cell-based; settings: ATCC700603
[10] = system: Streptococcus pneumoniae ATCC 49619; experiment: microbe, parasite or virus in culture; format: cell-based; settings: ATCC49619

SMILES	IC50 [1]	MIC [2]	MIC [3]	MIC [4]	MIC [5]	MIC [6]	MIC [7]	MIC [8]	MIC [9]	MIC [10]
COc1ccc2ccc(=O)n(CCCN3CC[C@H]4[C@@H](C3)OC(=O)N4c3ccc4c(n3)NC(=O)CO4)c2n1 (relative stereo) [Compound 7, rel-1-{3-[(3aR*,7aS*)-2-oxo-1-{3-oxo-2H,3H,4H-pyrido[3,2-b][1,4]oxazin-6-yl}-octahydro-[1,3]oxazolo[5,4-c]pyridin-5-yl]propyl}-7-methoxy-1,2-dihydro-1,8-naphthyridin-2-one]	10 to 100 µg/mL (≈ 19.7 to 197 µM)	< 1 µg/mL	< 1 µg/mL	< 1 µg/mL	1 to 10 µg/mL (≈ 1.97 to 19.7 µM)	10 to 100 µg/mL (≈ 19.7 to 197 µM)	< 1 µg/mL	< 1 µg/mL	10 to 100 µg/mL (≈ 19.7 to 197 µM)	< 1 µg/mL
N#Cc1ccc2ccc(=O)n(CCCN3CC[C@@H]4[C@H](C3)OC(=O)N4c3ccc4c(n3)NC(=O)CO4)c2c1 (relative stereo) [Compound 6, rel-1-{3-[(3aR*,7aS*)-2-oxo-1-{3-oxo-2H,3H,4H-pyrido[3,2-b][1,4]oxazin-6-yl}-octahydro-[1,3]oxazolo[5,4-c]pyridin-5-yl]propyl}-2-oxo-1,2-dihydroquinoline-7-carbonitrile]	10 to 100 µg/mL (≈ 20 to 200 µM)	1 to 10 µg/mL (≈ 2 to 20 µM)	1 to 10 µg/mL (≈ 2 to 20 µM)	< 1 µg/mL	1 to 10 µg/mL (≈ 2 to 20 µM)	10 to 100 µg/mL (≈ 20 to 200 µM)	< 1 µg/mL	< 1 µg/mL	10 to 100 µg/mL (≈ 20 to 200 µM)	< 1 µg/mL
O=C1COc2ccc(N3C(=O)O[C@H]4CN(CCCn5c(=O)ccc6ccccc65)CC[C@H]43)nc2N1 (relative stereo) [Compound 2, rel-1-{3-[(3aR*,7aS*)-2-oxo-1-{3-oxo-2H,3H,4H-pyrido[3,2-b][1,4]oxazin-6-yl}-octahydro-[1,3]oxazolo[5,4-c]pyridin-5-yl]propyl}-1,2-dihydroquinolin-2-one]	10 to 100 µg/mL (≈ 21 to 210 µM)	1 to 10 µg/mL (≈ 2.1 to 21 µM)	1 to 10 µg/mL (≈ 2.1 to 21 µM)	1 to 10 µg/mL (≈ 2.1 to 21 µM)	10 to 100 µg/mL (≈ 21 to 210 µM)	10 to 100 µg/mL (≈ 21 to 210 µM)	< 1 µg/mL	< 1 µg/mL	10 to 100 µg/mL (≈ 21 to 210 µM)	< 1 µg/mL
COc1ccc2ccc(=O)n(CCCN3CC[C@@H]4[C@@H](C3)OC(=O)N4c3ccc4c(n3)NC(=O)CO4)c2n1 (relative stereo) [Compound 9, rel-1-{3-[(3aR*,7aR*)-2-oxo-1-{3-oxo-2H,3H,4H-pyrido[3,2-b][1,4]oxazin-6-yl}-octahydro-[1,3]oxazolo[5,4-c]pyridin-5-yl]propyl}-7-methoxy-1,2-dihydro-1,8-naphthyridin-2-one]	10 to 100 µg/mL (≈ 19.7 to 197 µM)	< 1 µg/mL	< 1 µg/mL	< 1 µg/mL	1 to 10 µg/mL (≈ 1.97 to 19.7 µM)	1 to 10 µg/mL (≈ 1.97 to 19.7 µM)	< 1 µg/mL	< 1 µg/mL	10 to 100 µg/mL (≈ 19.7 to 197 µM)	< 1 µg/mL
N#Cc1ccc2ccc(=O)n(CCCN3CC[C@@H]4[C@@H](C3)OC(=O)N4c3ccc4c(n3)NC(=O)CO4)c2c1 (relative stereo) [Compound 10, rel-1-{3-[(3aR*,7aR*)-2-oxo-1-{3-oxo-2H,3H,4H-pyrido[3,2-b][1,4]oxazin-6-yl}-octahydro-[1,3]oxazolo[5,4-c]pyridin-5-yl]propyl}-2-oxo-1,2-dihydroquinoline-7-carbonitrile]	10 to 100 µg/mL (≈ 20 to 200 µM)	< 1 µg/mL	< 1 µg/mL	< 1 µg/mL	1 to 10 µg/mL (≈ 2 to 20 µM)	1 to 10 µg/mL (≈ 2 to 20 µM)	< 1 µg/mL	< 1 µg/mL	10 to 100 µg/mL (≈ 20 to 200 µM)	< 1 µg/mL
